# Assay results: ChEMBL document CHEMBL1201862, “PubChem BioAssay data set” (2004)
#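 Compound exposure: 48 hours, 5 concentrations, 96-well plates. The concentration for 50% growth inhibition is given as GI50.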 Active and inactive are the calls of the source. No stated cut-off is given here; in the data, active = GI50 up to about 1.1 µM and inactive = higher.
# What was measured:
# Assay in all cases: NCI anticancer screen, dose series, 48 h
# OVCAR-4 = test system: OVCAR-4
# CAKI-1 = test system: CAKI-1
# HOP-62 = test system: HOP-62
# RXF 393 = test system: RXF 393
# SW-620 = test system: SW-620
# MCF7 = test system: MCF7
# MDA-MB-435 = test system: MDA-MB-435
# HOP-92 = test system: HOP-92
# SF-268 = test system: SF-268
# OVCAR-5 = test system: OVCAR-5
# SK-MEL-5 = test system: SK-MEL-5
# Malme-3M = test system: Malme-3M
# A549 = test system: A549
# NCI-H226 = test system: NCI-H226
# A498 = test system: A498
# NCI-H522 = test system: NCI-H522
# HT-29 = test system: HT-29
# LOX IMVI = test system: LOX IMVI
# OVCAR-3 = test system: OVCAR-3
# CCRF-CEM = test system: CCRF-CEM
# T47D = test system: T47D
# M14 = test system: M14
# KM12 = test system: KM12
# TK-10 = test system: TK-10
# MOLT-4 = test system: MOLT-4
# PC-3 = test system: PC-3
# SK-MEL-28 = test system: SK-MEL-28
# SN12C = test system: SN12C
# K562 = test system: K562
# NCI-H460 = test system: NCI-H460
# COLO 205 = test system: COLO 205
# UACC-62 = test system: UACC-62
# Hs-578T = test system: Hs-578T
# SF-295 = test system: SF-295
# U-251 = test system: U-251
# SNB-19 = test system: SNB-19
# OVCAR-8 = test system: OVCAR-8
# NCI-H23 = test system: NCI-H23
# MDA-MB-231 = test system: MDA-MB-231
# SK-MEL-2 = test system: SK-MEL-2
# HCT-116 = test system: HCT-116
# EKVX = test system: EKVX
# BT-549 = test system: BT-549
# NCI/ADR-RES = test system: NCI/ADR-RES
# IGROV-1 = test system: IGROV-1
# ACHN = test system: ACHN
# MDA-N = test system: MDA-N
# HCC 2998 = test system: HCC 2998
# 786-0 = test system: 786-0
# HCT-15 = test system: HCT-15
# DU-145 = test system: DU-145
# UO-31 = test system: UO-31
# SK-OV-3 = test system: SK-OV-3
# UACC-257 = test system: UACC-257
# SF-539 = test system: SF-539
# SNB-75 = test system: SNB-75
# RPMI-8226 = test system: RPMI-8226
# HL-60 = test system: HL-60
compound,measurement,setting,value
COC(=O)c1sc(=O)sc1SCc1cccc(CSc2sc(=O)sc2C(=O)OC)c1,GI50,OVCAR-4,15.9 µM (inactive)
same,GI50,CAKI-1,28.4 µM (inactive)
same,GI50,HOP-62,16 µM (inactive)
same,GI50,RXF 393,26 µM (inactive)
same,GI50,SW-620,> 100 µM (inactive)
same,GI50,MCF7,9.33 µM (inactive)
same,GI50,MDA-MB-435,60.1 µM (inactive)
same,GI50,HOP-92,24.2 µM (inactive)
same,GI50,SF-268,27.3 µM (inactive)
same,GI50,OVCAR-5,> 100 µM (inactive)
same,GI50,SK-MEL-5,> 100 µM (inactive)
same,GI50,Malme-3M,18.7 µM (inactive)
same,GI50,A549,51.4 µM (inactive)
same,GI50,NCI-H226,61.4 µM (inactive)
same,GI50,A498,36.1 µM (inactive)
same,GI50,NCI-H522,29 µM (inactive)
same,GI50,HT-29,> 100 µM (inactive)
same,GI50,LOX IMVI,> 100 µM (inactive)
same,GI50,OVCAR-3,23.9 µM (inactive)
same,GI50,CCRF-CEM,50.5 µM (inactive)
same,GI50,T47D,38.9 µM (inactive)
same,GI50,M14,36.4 µM (inactive)
same,GI50,KM12,> 100 µM (inactive)
same,GI50,TK-10,23.2 µM (inactive)
same,GI50,MOLT-4,47.6 µM (inactive)
same,GI50,PC-3,29.2 µM (inactive)
same,GI50,SK-MEL-28,55.8 µM (inactive)
same,GI50,SN12C,39.7 µM (inactive)
same,GI50,K562,43.3 µM (inactive)
same,GI50,NCI-H460,35.1 µM (inactive)
same,GI50,COLO 205,> 100 µM (inactive)
same,GI50,UACC-62,33.7 µM (inactive)
same,GI50,Hs-578T,57.1 µM (inactive)
same,GI50,SF-295,26.2 µM (inactive)
same,GI50,U-251,17.4 µM (inactive)
same,GI50,SNB-19,22.3 µM (inactive)
same,GI50,OVCAR-8,37.2 µM (inactive)
same,GI50,NCI-H23,52.6 µM (inactive)
same,GI50,MDA-MB-231,24.9 µM (inactive)
same,GI50,SK-MEL-2,47.9 µM (inactive)
same,GI50,HCT-116,56.1 µM (inactive)
same,GI50,EKVX,42.8 µM (inactive)
same,GI50,BT-549,36.4 µM (inactive)
same,GI50,NCI/ADR-RES,62.4 µM (inactive)
same,GI50,IGROV-1,30.7 µM (inactive)
same,GI50,ACHN,30 µM (inactive)
same,GI50,MDA-N,68.9 µM (inactive)
same,GI50,HCC 2998,53.7 µM (inactive)
same,GI50,786-0,17.6 µM (inactive)
same,GI50,HCT-15,> 100 µM
same,GI50,DU-145,92.3 µM (inactive)
same,GI50,UO-31,64.6 µM (inactive)
same,GI50,SK-OV-3,22.7 µM (inactive)
same,GI50,UACC-257,70.5 µM (inactive)
CCC[C@H](N[S+]([O-])c1ccc(C)cc1)C(C(=O)OCC)=C(c1ccccc1)c1ccccc1 (stereo partly specified),GI50,OVCAR-4,16.7 µM (inactive)
same,GI50,CAKI-1,13.3 µM (inactive)
same,GI50,HOP-62,19 µM (inactive)
same,GI50,RXF 393,14.5 µM (inactive)
same,GI50,SW-620,57.4 µM (inactive)
same,GI50,MCF7,16.6 µM (inactive)
same,GI50,MDA-MB-435,17.1 µM (inactive)
same,GI50,HOP-92,15.1 µM (inactive)
same,GI50,SF-268,30.1 µM (inactive)
same,GI50,OVCAR-5,14.5 µM (inactive)
same,GI50,SK-MEL-5,22.1 µM (inactive)
same,GI50,Malme-3M,17.4 µM (inactive)
same,GI50,A549,21.5 µM (inactive)
same,GI50,NCI-H226,26.1 µM (inactive)
same,GI50,A498,19.7 µM (inactive)
same,GI50,NCI-H522,17.3 µM (inactive)
same,GI50,HT-29,13.9 µM (inactive)
same,GI50,LOX IMVI,18.1 µM (inactive)
same,GI50,CCRF-CEM,26 µM (inactive)
same,GI50,T47D,16.8 µM (inactive)
same,GI50,SF-539,22.9 µM (inactive)
same,GI50,M14,22 µM (inactive)
same,GI50,KM12,18.6 µM (inactive)
same,GI50,TK-10,28.6 µM (inactive)
same,GI50,MOLT-4,16.2 µM (inactive)
same,GI50,SNB-75,17.8 µM (inactive)
same,GI50,PC-3,15 µM (inactive)
same,GI50,SK-MEL-28,27.6 µM (inactive)
same,GI50,SN12C,19.8 µM (inactive)
same,GI50,K562,21.3 µM (inactive)
same,GI50,NCI-H460,17 µM (inactive)
same,GI50,COLO 205,22.2 µM (inactive)
same,GI50,UACC-62,13.4 µM (inactive)
same,GI50,Hs-578T,25.8 µM (inactive)
same,GI50,SF-295,17.8 µM (inactive)
same,GI50,U-251,16.2 µM (inactive)
same,GI50,SNB-19,44.3 µM (inactive)
same,GI50,OVCAR-8,27.4 µM (inactive)
same,GI50,NCI-H23,27.1 µM (inactive)
same,GI50,MDA-MB-231,18.7 µM (inactive)
same,GI50,RPMI-8226,18.7 µM (inactive)
same,GI50,SK-MEL-2,14.5 µM (inactive)
same,GI50,HCT-116,14.1 µM (inactive)
same,GI50,EKVX,18.2 µM (inactive)
same,GI50,BT-549,21.2 µM (inactive)
same,GI50,NCI/ADR-RES,27.7 µM (inactive)
same,GI50,IGROV-1,25.1 µM (inactive)
same,GI50,ACHN,22.4 µM (inactive)
same,GI50,MDA-N,20.8 µM (inactive)
same,GI50,HCC 2998,3.13 µM (inactive)
same,GI50,786-0,18.1 µM (inactive)
same,GI50,HCT-15,25.2 µM
same,GI50,DU-145,18.9 µM (inactive)
same,GI50,UO-31,14.8 µM (inactive)
same,GI50,HL-60,21.4 µM (inactive)
same,GI50,SK-OV-3,24.6 µM (inactive)
same,GI50,UACC-257,16.1 µM (inactive)
